Reference: the supplement of paper PMC10627819

Experiments:
S. aureus DSM 20231 [1] = assay: Bliss interaction score (quartile over a dose matrix) (fitness difference); higher = more antagonism (negative = synergy)
In short: (§1)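 Combination data were used to infer fitness under each single drug. Fitness is the OD595 at entry into stationary phase divided by the robust mean of the plate's no-drug wells, with a cap of 1. The Bliss score is the observed minus the expected product fitness, summarised by quartiles over technical, biological and donor/recipient replicates.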

B. subtilis 168 [2] = assay: as above
In short: as §1

S. pneumoniae D39V [3] = assay: as above
In short: as §1

S. aureus Newman = assay: as above
In short: as §1

S. aureus DSM 20231 [4] = assay: fitness (endpoint OD595 vs no drug) (fraction); higher = more growth
In short: (§2)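 Volumes were 30 µl per well, or 55 µl for S. pneumoniae, in 384-well plates inoculated at OD595 0.01. Media were TSB, LB Lennox or CY at 37 °C, and OD595 was read every 30 min for 14 h with first-reading background subtraction. Fitness is the ratio of optical density at stationary-phase entry to the robust mean of no-drug controls. That ratio is capped at 1.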

B. subtilis 168 [5] = assay: as above
In short: as §2

S. pneumoniae D39V [6] = assay: as above
In short: as §2
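For Bliss interaction score (quartile over a dose matrix) in this document: first quartile when negative (synergy) and third quartile when positive (antagonism).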

CCC[C@@H]1C[C@@H](C(=O)N[C@@H]([C@H]2O[C@H](SC)[C@H](O)[C@@H](O)[C@H]2O)[C@@H](C)O)N(C)C1 [Lincomycin] + CC(=O)NC[C@H]1CN(c2ccc(N3CCOCC3)c(F)c2)C(=O)O1 [Linezolid]
Conditions | Bliss interaction score
B. subtilis 168 [2] | 0.158
S. aureus DSM 20231 [1] | -0.069
S. aureus Newman | -0.088
S. pneumoniae D39V [3] | 0.0482

Conditions | fitness
B. subtilis 168 [5], first compound 0.1 µg/mL, partner 0.5 µg/mL | 0.0626
B. subtilis 168 [5], first compound 0.2 µg/mL, partner 0.125 µg/mL | 0.643
B. subtilis 168 [5], first compound 0.2 µg/mL, partner 0.5 µg/mL | 0.0527
B. subtilis 168 [5], first compound 0.4 µg/mL, partner 0.125 µg/mL | 0.629
B. subtilis 168 [5], first compound 0.4 µg/mL, partner 0.5 µg/mL | 0.0589
S. aureus DSM 20231 [4], first compound 0.1 µg/mL, partner 0.125 µg/mL | 0.824
S. aureus DSM 20231 [4], first compound 0.1 µg/mL, partner 0.25 µg/mL | 0.628
S. aureus DSM 20231 [4], first compound 0.1 µg/mL, partner 0.5 µg/mL | 0.276
S. aureus DSM 20231 [4], first compound 0.2 µg/mL, partner 0.125 µg/mL | 0.583
S. aureus DSM 20231 [4], first compound 0.2 µg/mL, partner 0.5 µg/mL | 0.192
S. aureus DSM 20231 [4], first compound 0.4 µg/mL, partner 0.125 µg/mL | 0.244
S. aureus DSM 20231 [4], first compound 0.4 µg/mL, partner 0.25 µg/mL | 0.146
S. aureus DSM 20231 [4], first compound 0.4 µg/mL, partner 0.5 µg/mL | 0.0893
S. pneumoniae D39V [6], first compound 0.2 µg/mL, partner 0.105 µg/mL | 0.717
S. pneumoniae D39V [6], first compound 0.2 µg/mL, partner 0.21 µg/mL | 0.658
S. pneumoniae D39V [6], first compound 0.2 µg/mL, partner 0.42 µg/mL | 0.519
S. pneumoniae D39V [6], first compound 0.215 µg/mL, partner 0.2 µg/mL | 0.716
S. pneumoniae D39V [6], first compound 0.215 µg/mL, partner 0.4 µg/mL | 0.649
S. pneumoniae D39V [6], first compound 0.215 µg/mL, partner 0.8 µg/mL | 0.413
S. pneumoniae D39V [6], first compound 0.4 µg/mL, partner 0.105 µg/mL | 0.627
S. pneumoniae D39V [6], first compound 0.4 µg/mL, partner 0.21 µg/mL | 0.601
S. pneumoniae D39V [6], first compound 0.4 µg/mL, partner 0.42 µg/mL | 0.234
S. pneumoniae D39V [6], first compound 0.43 µg/mL, partner 0.2 µg/mL | 0.642
S. pneumoniae D39V [6], first compound 0.43 µg/mL, partner 0.4 µg/mL | 0.583
S. pneumoniae D39V [6], first compound 0.43 µg/mL, partner 0.8 µg/mL | 0.306
S. pneumoniae D39V [6], first compound 0.8 µg/mL, partner 0.105 µg/mL | 0.278
S. pneumoniae D39V [6], first compound 0.8 µg/mL, partner 0.21 µg/mL | 0.128
S. pneumoniae D39V [6], first compound 0.8 µg/mL, partner 0.42 µg/mL | 0.0738
S. pneumoniae D39V [6], first compound 0.86 µg/mL, partner 0.2 µg/mL | 0.392
S. pneumoniae D39V [6], first compound 0.86 µg/mL, partner 0.4 µg/mL | 0.311
S. pneumoniae D39V [6], first compound 0.86 µg/mL, partner 0.8 µg/mL | 0.13

fitness, one replicate
Conditions | first compound 0.1 µg/mL | first compound 0.2 µg/mL | first compound 0.4 µg/mL | first compound 0.8 µg/mL | first compound 1.6 µg/mL
B. subtilis 168 [5], partner 0.0625 µg/mL | – | – | 0.87 | 0.867 | 0.847
B. subtilis 168 [5], partner 0.125 µg/mL | – | – | – | 0.633 | 0.638
B. subtilis 168 [5], partner 0.25 µg/mL | – | – | – | 0.102 | 0.0942
S. aureus DSM 20231 [4], partner 1 µg/mL | 0.0602 | 0.0846 | 0.0423 | – | –

CCC[C@@H]1C[C@@H](C(=O)N[C@@H]([C@H]2O[C@H](SC)[C@H](O)[C@@H](O)[C@H]2O)[C@@H](C)O)N(C)C1 [Lincomycin] + Cn1nnc(-c2ccc(-c3ccc(N4C[C@H](CO)OC4=O)cc3F)cn2)n1 [Tedizolid]
Conditions | Bliss interaction score
B. subtilis 168 [2] | 0.0845
S. aureus DSM 20231 [1] | -0.114
S. aureus Newman | -0.129
S. pneumoniae D39V [3] | 0.138

fitness
Conditions | partner 0.03125 µg/mL | partner 0.0625 µg/mL | partner 0.125 µg/mL | partner 0.25 µg/mL | partner 0.5 µg/mL
S. aureus DSM 20231 [4], first compound 0.1 µg/mL | – | 0.806 | 0.683 | 0.364 | –
S. aureus DSM 20231 [4], first compound 0.2 µg/mL | – | 0.568 | 0.434 | 0.229 | –
S. aureus DSM 20231 [4], first compound 0.4 µg/mL | – | 0.27 | 0.182 | 0.115 | –
S. pneumoniae D39V [6], first compound 0.2 µg/mL | 0.732 | 0.796 | 0.665 | – | –
S. pneumoniae D39V [6], first compound 0.215 µg/mL | – | – | 0.754 | 0.731 | 0.345
S. pneumoniae D39V [6], first compound 0.4 µg/mL | 0.647 | 0.716 | 0.611 | – | –
S. pneumoniae D39V [6], first compound 0.43 µg/mL | – | – | 0.661 | 0.629 | 0.277
S. pneumoniae D39V [6], first compound 0.8 µg/mL | 0.549 | 0.67 | 0.57 | – | –
S. pneumoniae D39V [6], first compound 0.86 µg/mL | – | – | 0.209 | 0.162 | 0.0655

CCC[C@@H]1C[C@@H](C(=O)N[C@@H]([C@H]2O[C@H](SC)[C@H](O)[C@@H](O)[C@H]2O)[C@@H](C)O)N(C)C1 [Lincomycin] + Cc1onc(-c2ccccc2)c1C(=O)N[C@@H]1C(=O)N2[C@@H]1SC(C)(C)[C@@H]2C(=O)O [Oxacillin]
Conditions | Bliss interaction score
B. subtilis 168 [2] | -0.0676
S. aureus DSM 20231 [1] | 0.119
S. aureus Newman | 0.137
S. pneumoniae D39V [3] | 0.189

fitness
Conditions | first compound 0.1 µg/mL | first compound 0.2 µg/mL | first compound 0.215 µg/mL | first compound 0.4 µg/mL | first compound 0.43 µg/mL | first compound 0.8 µg/mL | first compound 0.86 µg/mL
B. subtilis 168 [5], partner 0.002 µg/mL | 0.911 | 0.939 | – | 0.913 | – | – | –
B. subtilis 168 [5], partner 0.004 µg/mL | 0.881 | 0.923 | – | 0.926 | – | – | –
B. subtilis 168 [5], partner 0.008 µg/mL | 0.891 | 0.877 | – | 0.83 | – | – | –
S. aureus DSM 20231 [4], partner 0.0156 µg/mL | 0.785 | 0.78 | – | 0.291 | – | – | –
S. aureus DSM 20231 [4], partner 0.0312 µg/mL | 0.655 | 0.682 | – | 0.259 | – | – | –
S. aureus DSM 20231 [4], partner 0.0625 µg/mL | 0.491 | 0.515 | – | 0.173 | – | – | –
S. pneumoniae D39V [6], partner 0.01 µg/mL | – | 0.765 | 0.927 | 0.63 | 0.762 | – | 0.507
S. pneumoniae D39V [6], partner 0.02 µg/mL | – | 0.764 | 0.882 | 0.588 | 0.778 | – | 0.483
S. pneumoniae D39V [6], partner 0.04 µg/mL | – | 0.509 | 0.787 | 0.403 | 0.716 | 0.139 | 0.404

fitness, B. subtilis 168 [5], one replicate
Conditions | partner 0.0078 µg/mL | partner 0.0155 µg/mL | partner 0.031 µg/mL | partner 0.075 µg/mL | partner 0.15 µg/mL | partner 0.3 µg/mL
first compound 0.1 µg/mL | ≥ 1 | ≥ 1 | ≥ 1 | – | – | –
first compound 0.2 µg/mL | ≥ 1 | ≥ 1 | 0.889 | – | – | –
first compound 0.4 µg/mL | ≥ 1 | ≥ 1 | 0.934 | 0.183 | 0.0398 | 0.0489
first compound 0.8 µg/mL | – | – | – | 0.403 | 0.0361 | 0.0601
first compound 1.6 µg/mL | – | – | – | 0.261 | 0.0594 | 0.0563
